Data published in patent publication US20260335279A1, “METHODS OF TREATING ISCHEMIA-REPERFUSION INJURIES” (University of Cincinnati, priority 2022, published 2026).

How the values were obtained:
KLF5 promoter = conditions: colorectal cancer cell lines; Bialkowska 2011; cited from earlier work
KLF5 [1] = conditions: colorectal cancer cell lines; Bialkowska 2011; cited from earlier work
KLF5 [2] = conditions: cited from earlier work
[3] = tested on: myocardial ischemia-reperfusion injury in mice; assay: Infarct size evaluation upon Evans Blue/TTC staining after myocardial I/R; assay type: in vivo, mouse (C57BL/6)
Protocol: (§1) The myocardial ischemia/reperfusion surgical protocol was applied as follows. Mice were anesthetized with 2% isoflurane inhalation until anesthesia was achieved. The animals' body temperature was maintained at 37 °C throughout the surgical procedure using a heating pad. A tracheal tube was placed via tracheal intubation and the respiration rate was set at 150 strokes/min with a tidal volume of 200 μL, using Minivent ventilator for mice (Model 845, Harvard Apparatus). A 1.2 cm incision was made over the left chest. After retraction of the pectoral major and minor muscles, the fourth intercostal space was exposed. […] The left anterior descending coronary artery (LAD) was then located, sutured, and ligated at a site 3-4 mm distal to the origin of the artery under the left atrium using a 6-0 silk suture. The heart was allowed to stabilize for 15 min and right after, ischemia was induced by tightening the suture against a small piece of polyethylene tube. At the end of the 30-minute ischemia period, the ligature was released for the induction of reperfusion, and then the manual evacuation of air and closure of muscle and skin were performed. The mouse was then monitored during the recovery period, which was generally completed within 3 to 5 minutes. Sustain-released buprenorphine (BupSR, 0.5 mg/kg body weight) was provided by subcutaneous injection. Mice were then left to recover until the end of the reperfusion (2 hours, 12 hours, 24 hours, or 4 weeks). The sham group underwent the same surgical procedure except that the LAD was not occluded.
Double staining of the heart with Evans Blue dye and Triphenyl-Tetrazolium Chloride (TTC) solution was employed for infarct size measurements. Mice were anesthetized upon 3% isoflurane inhalation. The thorax was cut and opened, and hearts were gently excised. Then, the aorta was cannulated and perfused with 5 mL of normal saline. The suture was re-tightened and Evans Blue solution (2.5% in WFI) was slowly infused through the aorta, to differentiate the ischemic part of the myocardium from the non-occluded, normally perfused area. The hearts were sliced into 1-2 mm sections immediately following. The heart slices were incubated with TTC solution (1% in PBS, pH=7.4) at 37 °C for 20 min. In this way, the necrotic area is delimited as a white area, while the viable tissue is stained red. […] The overall size of each slice (All/A), the area-at-risk (R), and the infarct area (I) were determined in a blinded manner for each slice using ImageJ software, and the percentages of Area at Risk (R/A) % and I/R % were calculated. […]
Administration of these two compounds was performed 5 minutes before the reopening of the coronary artery and infarct size was assessed upon 30 minutes of ischemia followed by 24 hours of reperfusion therapy.

[4] = tested on: reactive oxygen species in myocardium; assay: DHE staining of myocardium (superoxide detection, oxidative stress) after I/R; assay type: in vivo, mouse (C57BL/6); conditions: 2 h reperfusion; apocynin 5 mg/kg/12 h or GLX351322 3.8 mg/kg/12 h, intraperitoneal, at early reperfusion
Protocol: as §1, with “Sustain-released buprenorphine (BupSR, 0.5 mg/kg body weight) was provided by subcutaneous injection. Mice were then left to recover until the end of the reperfusion (2 hours, 12 hours, 24 hours, or 4 weeks). The sham group underwent the same surgical procedure except that the LAD was not occluded.” left out
Live myocardium was isolated from mice at the time of euthanasia and stained with 20 μM dihydroethidium (DHE) for 30 min at room temperature. […] Individual nuclei were measured within each visual field using ImageJ software, and visual fields were averaged to measure mean fluorescence intensity for each mouse.
In order to unravel the mechanisms of KLF5-mediated cardiotoxicity, oxidative stress levels were evaluated at early reperfusion. […] Given the fact that inflammation and diapedesis of immune cells are important hallmarks of the post-ischemia-reperfusion response, the mRNA levels of IL-1α, IL-1β, IL-6, IL-10, and TNFα in the ischemic myocardium upon ML264 treatment were evaluated at 2 hours of reperfusion (FIGS. 51-5M) and 24 hours of reperfusion (FIGS. 5N-5Q). […]

NOX4 = conditions: cited from earlier work
[5] = apocynin 5 mg/kg/12 h or GLX351322 3.8 mg/kg/12 h, intraperitoneal, at early reperfusion, vs vehicle

SMILES: CC(C)(C)c1cc(C=C(C#N)C#N)cc(C(C)(C)C)c1O [AG17]
- KLF5 promoter activity (KLF5 promoter): reduce
- KLF5 protein level (KLF5 [1]): reduce

SMILES: CC(C)(C)c1cc(/C=C(\C#N)C(N)=S)cc(C(C)(C)C)c1O [AG879]
- inhibition of KLF5 (KLF5 [2]): inhibit

SMILES: CCOC(=O)c1c(NC(=O)CN2CCN(C(=O)c3ccco3)CC2)sc2c1CCC2 [GLX-351322]
- infarct size [3, 5]: significant reduction
- oxidative stress (DHE staining) [4]: significant suppression
- hydrogen peroxide production from NOX4-overexpressing cells (NOX4): inhibits

SMILES: CC(C)(C)c1ccc(S(=O)(=O)NCc2ccc(C(=O)Nc3cccnc3)cc2)cc1 [STF-31]
- infarct size ([3]; GLUT inhibitors 5 min before reopening of coronary artery, 30 min ischemia, 24 h reperfusion): not by STF-31 treatment

SMILES: COc1cc(C(C)=O)ccc1O [apocynin, acetovanillone]
- infarct size [3, 5]: significant reduction
- oxidative stress (DHE staining) [4]: significant suppression
